Data published in patent US20240269120A1, “Method for Treating an Autoimmune and Inflammatory Disease” (Cellestia Biotech AG, priority 2021, published 2024).
Where “and” joins values, the source holds several entries; their conditions need not be identical. Identical values can stand only once.

What was measured:
[1] = system: Treg cells (CD4+CD25highFOXP3+); experiment: In vivo dosing of C57BL6 mice, Treg cells in spleen; set-up: species or system mouse; settings: C57BL6 wild type mice, 60 mg/kg QD
Experimental: C57BL6 wild type mice were treated with 6-(4-tert-butylphenoxy)pyridin-3-amine at 60 mg/kg dose (QD). […] (*) p<0.05. Each bar represents the mean±SEM (N=3 replicates).
(§1) In vivo treatment of mice and pharmacodynamic response: Mice experiments were performed in compliance with authorization to perform animal experiments (VD3323). Briefly, 6-8 weeks old wild type C57Bl6 mice were subcutaneously or intraperitoneally dosed with vehicle or compounds for different durations. Mice were sacrificed, spleens were harvested 24 hours post-last dosing. Splenocytes were analyzed for cell surface and intracellular markers expression using flow cytometry. RNA expression analyses were performed using quantitative real time PCR.
(§2) Flow cytometry analysis: Flow cytometry analysis was performed to quantify cell surface and intracellular markers expression and measure cell division index.

IL-12a mRNA = experiment: Quantitative RT-PCR of splenocyte mRNA after in vivo dosing: IL-12a; set-up: species or system mouse; settings: in vivo treated mice vs vehicle; p<0.01; FIG. 4
Experimental: FIG. 4: In vivo 6-(4-tert-butylphenoxy)pyridin-3-amine dosing leads to a downregulation of pro-inflammatory cytokine IL-12a mRNA in mouse spleen. […] Each bar represents the mean±SD (N=3 replicates). (**) p<0.01
as §1

activated CD4 T cells = experiment: Cell proliferation assay (Cell trace violet), activated CD4 T cells; type: cell-based; settings: control 0%
Experimental: Following PBMC injections, mice were treated with vehicle or 6-(4-tert-butylphenoxy)pyridin-3-amine or Ruxolitinib starting at day 0. Mice were monitored from 60-85 days for symptoms of GvHD and scored according to a standard clinical scoring system for GvHD (Naserian et al., 2018) (see table 1) and a cumulative clinical score was obtained by addition of clinical score for individual parameters. A maximum score of 6 is measured when reaching endpoint. Cell proliferation assay: The effect of compounds on T cell proliferation was quantified using Cell trace violet (CTV). PBMCs/splenocytes were incubated with CTV for 20 minutes at 37° C. Cells were washed twice with RPMI complete medium. CTV labelled cells were stimulated with anti-CD3 and anti-CD28 antibodies and treated with control or compounds and cultured at 37° C. for 96 hours. The cell division index was measured by flow cytometry.
as §2

IFNG = experiment: ELISA of supernatant from activated human PBMC cultures: IFNG; type: cell-based; settings: control 0%
Experimental: Human PBMCs and mouse splenocyte in vitro stimulation and treatment: Human peripheral blood mononuclear cells (PBMCs) and mouse splenocytes from donors were stimulated in vitro with anti-CD3 and anti-CD28 antibodies. The stimulated cells were simultaneously treated with compounds for 96 hours. The T cells were profiled for different cell surface and intracellular markers and proliferation by flow cytometry.
ELISA assay: Supernatant from activated human PBMC cultures described above was separated from cells at the end of culture time. Key cytokines (IL-6, IFN-γ, IL-17) were quantified using sandwich ELISA reagents set (Diaclone) following manufacturer's instruction manual.

IL-6 = experiment: Cytokine profiling in human patient plasma (MSD): IL-6; type: in vivo; settings: human patients, day 3 on treatment vs baseline pre-treatment
Experimental: Cytokine profiling in human plasma samples: Plasma samples from patients treated with 6-(4-tert-butylphenoxy)pyridin-3-amine were collected and stored at −80° C. until analysed. Cytokine and chemokine profiling was performed using MesoScale Discovery (MSD) platform and three assay panels: 1) Pro-inflammatory panel human, 2) Human IL-6 assay S-Plex, 3) Human IL-10 assay S-Plex.

[2] = system: NSG mice injected with human PBMCs (GvHD); experiment: Humanized GvHD mouse model, ex vivo treated human PBMCs, no in vivo treatment; set-up: GvHD clinical score: Body weight loss: dose or concentration left out as unconfirmed; settings: day 21
Experimental: Humanized GvHD mouse model: 6-8 weeks old NSG mice were intraperitoneally injected with 10 million human peripheral blood mononuclear cells (PBMCs) as below:
Ex vivo treatment of PBMCs: 10 million human PBMCs from healthy donor #1 were ex-vivo treated with DMSO and […] of 6-(4-tert-butylphenoxy)pyridin-3-amine for 6 hours. Ex-vivo treated PBMCs were intraperitoneally injected into mice (10 million per mouse). 10 NSG mice were injected with DMSO pre-treated PBMCs and 10 NSG mice were injected with 6-(4-tert-butylphenoxy)pyridin-3-amine pre-treated PBMCS. Following PBMC injections mice were monitored for up to 42 days for symptoms of GvHD development as measured by standardized GvHD clinical score system. No in-vivo drug treatment was administered.
A cumulative GvHD clinical score was calculated by addition of scores for individual parameters (e.g. cumulative score=BWL+posture+activity+fur texture+skin integrity+paleness).

[3] = system: irradiated Balb/c mice transplanted with TCD-BM + splenocytes from C57Bl6 mice (GvHD); experiment: Allogeneic bone marrow transplant GvHD model; type: in vivo, mouse
Experimental: (§3) Allogeneic Bone marrow transplant: Recipient Balb/c mice were irradiated twice 3.75Gy (T=0 and T=4 h) in an X-ray source irradiator before transplantation at T=8 h. Treatment with antibiotics (Nopil) and analgesic (Dafalgan) was supplemented to drinking water 4 days before injection. Irradiated recipient Balb/c mice were transplanted with 5 million T cell depleted bone marrow+1 million splenocytes. Allogeneic recipient animals were treated with vehicle or 6-(4-tert-butylphenoxy)pyridin-3-amine subcutaneously at 20 mg/kg for two days immediately after allo-BM transplant, given a 10 days treatment holiday to recover body weight loss due to whole body irradiation and then treatment continued at 20 mg/kg. […] Animals were monitored for symptoms of GvHD development (severe body weight loss, alopecia and diarrhea.
Graft vs host disease (GvHD) is an example of alloimmune disease that develops following allo-hematopoetic stem cell transplant (allo-HSCT) in humans. The activity of 6-(4-tert-butylphenoxy)pyridin-3-amine and a calcineurin inhibitor Cyclosprin A was investigated in a mouse model of GvHD following allo-bone marrow transplant. In this model, T cell depleted bone marrow cells (TCD-BM)+splenocytes from C57Bl6 mice were transplanted into irradiated Balb/c mice.

regulatory T cells = experiment: Regulatory T cells in allo-BM + splenocyte transplanted mice; type: in vivo, mouse
Experimental: as §3

[4] = PBMCs pre-treated ex-vivo, DMSO group 0.71

In the case of `CC(C)(C)c1ccc(Oc2ccc(N)cn2)cc1` [6-(4-tert-butylphenoxy)pyridin-3-amine], the “Treg cells (CD4+CD25highFOXP3+) number” value ([1]; p<0.05, FIG. 2a) is reported as “significantly increased”, the “Treg cells (CD4+CD25highFOXP3+) frequency” value ([1]; p<0.05, FIG. 2b) is reported as “significantly increased” and the “IL-12a transcript in splenocytes” value (IL-12a mRNA) is reported as “downregulation”. The “Percentage inhibition of CD4 T cells (proliferation)” value (activated CD4 T cells) was 81%, the “Percentage downregulation of IFNG” value (IFNG) was 10% and the “Percentage downregulation of IL-6 in blood plasma” value (IL-6) was 57% (day 3 on treatment). The “GvHD clinical score: Body weight loss” value ([2]; PBMCs pre-treated ex-vivo (6 hours), DMSO group 1.0) was 0, the “GvHD clinical score: Skin integrity” value ([2]; PBMCs pre-treated ex-vivo, DMSO group 0.14) was 0 and the “GvHD clinical score: Fur texture” value ([2]; PBMCs pre-treated ex-vivo, DMSO group 0.57) was 0.14. The “GvHD clinical score: Activity score” value [2, 4] was 0.14, the “GvHD clinical score: Paleness” value [2, 4] was 0 and the “GvHD clinical score: Posture” value [2, 4] was 0.14. The “Cumulative GvHD score” value ([2]; sum of individual scores, DMSO group 3.84) was “decreased cumulative GvHD score significantly and 0.42”, the “prevention of GvHD development (in words)” value ([3]; allo-bone marrow transplant, compared with vehicle) was “prevents development of GvHD” and the “treated animals that developed GvHD” value ([3]; allo-bone marrow transplant, 60% of vehicle treated animals died due to GvHD, FIG. 5) was 20%. For the same compound, the “animals remained GvHD free” value ([3]; allogeneic bone marrow+splenocyte transplantation, vehicle 40%, FIG. 5) was 80% and the “regulatory T cells” value (regulatory T cells) was “expansion of regulatory T cells”.
